Assay results reported in patent US10736883B2, “Triazole furan compounds as agonists of the APJ receptor” (AMGEN INC., priority 2016, dated 2020).

Target: APJ receptor (Homo sapiens (Human), UniProt P35414)
Assay: [35S]GTPγS binding assay on membranes from CHO cells stably expressing human APJ receptor
Type: biochemical
Conditions: membranes of CHO cells stably expressing human APJ receptor, means of several independent experiments, read-out: Activity hAPJ SPA EC50 IP
Outline: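 Membranes from CHO cells stably expressing human APJ were incubated with 0.2 nM [35S]GTPγS and ligands for 90 min at RT in 20 mM HEPES pH 7.5, 5 mM MgCl2, 200 mM NaCl, 3 μM GDP, 0.1% BSA with WGA PS beads. Nonspecific binding was set with 100 μM GTPγS. EC50 came from non-linear regression.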

Sequence of APJ receptor (P35414 whole entry): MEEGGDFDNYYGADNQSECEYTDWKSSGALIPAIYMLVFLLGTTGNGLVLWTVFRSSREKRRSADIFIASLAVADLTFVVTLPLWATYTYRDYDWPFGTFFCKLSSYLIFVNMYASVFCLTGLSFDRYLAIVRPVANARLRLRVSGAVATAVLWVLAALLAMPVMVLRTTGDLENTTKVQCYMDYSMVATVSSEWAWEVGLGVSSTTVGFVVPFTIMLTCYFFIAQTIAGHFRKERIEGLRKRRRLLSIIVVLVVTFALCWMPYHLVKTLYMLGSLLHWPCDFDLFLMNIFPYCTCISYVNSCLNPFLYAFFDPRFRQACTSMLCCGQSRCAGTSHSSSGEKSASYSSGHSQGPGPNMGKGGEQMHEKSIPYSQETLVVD

| EC50 [pM] | Compound |
| --- | --- |
| 390 | COc1cccc(OC)c1-n1c(NS(=O)(=O)[C@@H](C)[C@H](O)c2ccc(Cl)cc2S(C)(=O)=O)nnc1-c1ccc(C)o1 (single isomer, unassigned) [Example 157.0, (1R,2S)-1-(4-Chloro-2-(methylsulfonyl)phenyl)-N-(4-(2,6-dimethoxyphenyl)-5-(5-methyl-2-furanyl)-4H-1,2,4-triazol-3-yl)-1-hydroxy-2-propanesulfonamide or (1S,2R)-1-(4-chloro-2-(methylsulfonyl)phenyl)-N-(4-(2,6-dimethoxyphenyl)-5-(5-methyl-2-furanyl)-4H-1,2,4-triazol-3-yl)-1-hydroxy-2-propanesulfonamide] |
| 740 | COc1cccc(OC)c1-n1c(NS(=O)(=O)CCN2C(=O)N(C)CC[C@@H]2C)nnc1-c1ccc(C)o1 (single isomer, unassigned) [Example 164.0, N-(4-(2,6-Dimethoxyphenyl)-5-(5-methyl-2-furanyl)-4H-1,2,4-triazol-3-yl)-2-((6S)-3,6-dimethyl-2-oxotetrahydro-1(2H)-pyrimidinyl)ethanesulfonamide or N-(4-(2,6-dimethoxyphenyl)-5-(5-methyl-2-furanyl)-4H-1,2,4-triazol-3-yl)-2-((6R)-3,6-dimethyl-2-oxotetrahydro-1(2H)-pyrimidinyl)ethanesulfonamide] |
| 970 | COc1cccc(OC)c1-n1c(NS(=O)(=O)CCN2C(=O)[C@@H](C)C[C@]2(C)C#N)nnc1-c1ccco1 (single isomer, unassigned) [Example 168.0] |
| 1600 | COc1cccc(OC)c1-n1c(NS(=O)(=O)[C@H]2CC[C@H]3CCCC(=O)N3C2)nnc1-c1ccc(C)o1 (single isomer, unassigned) [Example 173.0] |
| 1900 | COc1cccc(OC)c1-n1c(NS(=O)(=O)[C@@H]2C[C@H](C#N)CN(c3ncc(F)cn3)C2)nnc1-c1ccc(C)o1 (single isomer, unassigned) [Example 174.0, (3R,5S)-5-Cyano-N-(4-(2,6-dimethoxyphenyl)-5-(5-methyl-2-furanyl)-4H-1,2,4-triazol-3-yl)-1-(5-fluoro-2-pyrimidinyl)-3-piperidinesulfonamide or (3S,5R)-5-cyano-N-(4-(2,6-dimethoxyphenyl)-5-(5-methyl-2-furanyl)-4H-1,2,4-triazol-3-yl)-1-(5-fluoro-2-pyrimidinyl)-3-piperidinesulfonamide] |
| 1900 | COc1cccc(OC)c1-n1c(NS(=O)(=O)CCN2C(=O)[C@H](C)C[C@H]2C)nnc1-c1ccco1 (single isomer, unassigned) [Example 175.0] |
| 33000 | COC[C@H]1CCCC(=O)N1C[C@@H](C)S(=O)(=O)Nc1nnc(-c2ccc(C)o2)n1-c1c(OC)cccc1OC (single isomer, unassigned) [Example 185.0] |
| 440 | COc1cccc(OC)c1-n1c(NS(=O)(=O)C[C@@](C)(F)c2ncc(C#N)cn2)nnc1-c1ccc(C)o1 (single isomer, unassigned) [Example 231.0, (2S)-2-(5-Cyano-2-pyrimidinyl)-N-(4-(2,6-dimethoxyphenyl)-5-(5-methyl-2-furanyl)-4H-1,2,4-triazol-3-yl)-2-fluoro-1-propanesulfonamide or (2R)-2-(5-cyano-2-pyrimidinyl)-N-(4-(2,6-dimethoxyphenyl)-5-(5-methyl-2-furanyl)-4H-1,2,4-triazol-3-yl)-2-fluoro-1-propanesulfonamide] |
| 500 | COc1cccc(OC)c1-n1c(NS(=O)(=O)C[C@](C)(O)c2ncc(C#N)cn2)nnc1-c1ccc(C)o1 (single isomer, unassigned) [Example 233.0, (R)-2-(5-Cyanopyrimidin-2-yl)-N-(4-(2,6-dimethoxyphenyl)-5-(5-methylfuran-2-yl)-4H-1,2,4-triazol-3-yl)-2-hydroxypropane-1-sulfonamide or (S)-2-(5-cyanopyrimidin-2-yl)-N-(4-(2,6-dimethoxyphenyl)-5-(5-methylfuran-2-yl)-4H-1,2,4-triazol-3-yl)-2-hydroxypropane-1-sulfonamide] |
| 580 | COc1cccc(OC)c1-n1c(NS(=O)(=O)C[C@@](C)(F)c2ncc(F)cn2)nnc1-c1ccc(C)o1 (single isomer, unassigned) [Example 237.0, (2S)—N-(4-(2,6-Dimethoxyphenyl)-5-(5-methyl-2-furanyl)-4H-1,2,4-triazol-3-yl)-2-fluoro-2-(5-fluoro-2-pyrimidinyl)-1-propanesulfonamide or (2R)—N-(4-(2,6-dimethoxyphenyl)-5-(5-methyl-2-furanyl)-4H-1,2,4-triazol-3-yl)-2-fluoro-2-(5-fluoro-2-pyrimidinyl)-1-propanesulfonamide] |

The remaining lines, values behind:

| Compound | EC50 [pM] |
| --- | --- |
| CCOC(=O)[C@@H]1C[C@H](S(=O)(=O)Nc2nnc(-c3ccco3)n2-c2c(OC)cccc2OC)CN(c2ncc(F)cn2)C1 (single isomer, unassigned) [Example 156.0, Ethyl (3R,5S)-5-((4-(2,6-Dimethoxyphenyl)-5-(2-furanyl)-4H-1,2,4-triazol-3-yl)sulfamoyl)-1-(5-fluoro-2-pyrimidinyl)-3-piperidinecarboxylate or Ethyl (3S,5R)-5-((4-(2,6-dimethoxyphenyl-5-(2-furanyl)-4H-1,2,4-triazol-3-yl)sulfamoyl)-1-(5-fluoro-2-pyrimidinyl)-3-piperidinecarboxylate] | 360 |
| COc1cccc(OC)c1-n1c(NS(=O)(=O)[C@H]2C[C@@H](C(=O)N3CCC3)CN(c3ncc(F)cn3)C2)nnc1-c1ccco1 (single isomer, unassigned) [Example 162.0, (3R,5S)-5-(1-Azetidinylcarbonyl)-N-(4-(2,6-dimethoxyphenyl)-5-(2-furanyl)-4H-1,2,4-triazol-3-yl)-1-(5-fluoro-2-pyrimidinyl)-3-piperidinesulfonamide or (3S,5R)-5-(1-azetidinylcarbonyl)-N-(4-(2,6-dimethoxyphenyl)-5-(2-furanyl)-4H-1,2,4-triazol-3-yl)-1-(5-fluoro-2-pyrimidinyl)-3-piperidinesulfonamide] | 680 |
| COc1cccc(OC)c1-n1c(NS(=O)(=O)[C@H]2C[C@@H](O)CN(c3ncc(F)cn3)C2)nnc1-c1ccco1 (single isomer, unassigned) [Example 167.0, (3S,5R)—N-(4-(2,6-Dimethoxyphenyl)-5-(2-furanyl)-4H-1,2,4-triazol-3-yl)-1-(5-fluoro-2-pyrimidinyl)-5-hydroxy-3-piperidinesulfonamide or (3R,5S)—N-(4-(2,6-dimethoxyphenyl)-5-(2-furanyl)-4H-1,2,4-triazol-3-yl)-1-(5-fluoro-2-pyrimidinyl)-5-hydroxy-3-piperidinesulfonamide] | 940 |
| COc1cccc(OC)c1-n1c(NS(=O)(=O)[C@@H]2C[C@@H](c3ccc(F)cc3)CN(C(C)=O)C2)nnc1-c1ccc(C)o1 (single isomer, unassigned) [Example 171.0, (3R,5S)-1-Acetyl-N-(4-(2,6-dimethoxyphenyl)-5-(5-methyl-2-furanyl)-4H-1,2,4-triazol-3-yl)-5-(4-fluorophenyl)-3-piperidinesulfonamide or (3S,5R)-1-acetyl-N-(4-(2,6-dimethoxyphenyl)-5-(5-methyl-2-furanyl)-4H-1,2,4-triazol-3-yl)-5-(4-fluorophenyl)-3-piperidinesulfonamide] | 1200 |
| COc1cnc([C@H](O)[C@@H](C)S(=O)(=O)Nc2nnc(-c3ccc(C)o3)n2-c2c(OC)cccc2OC)cn1 (single isomer, unassigned) [Example 177.0, (1S,2R)—N-(4-(2,6-Dimethoxyphenyl)-5-(5-methyl-2-furanyl)-4H-1,2,4-triazol-3-yl)-1-hydroxy-1-(5-methoxy-2-pyrazinyl)-2-propanesulfonamide or (1R,2S)—N-(4-(2,6-dimethoxyphenyl)-5-(5-methyl-2-furanyl)-4H-1,2,4-triazol-3-yl)-1-hydroxy-1-(5-methoxy-2-pyrazinyl)-2-propanesulfonamide] | 2800 |
| COc1cccc(OC)c1-n1c(NS(=O)(=O)[C@H]2C[C@H](OC)CN(c3ncc(F)cn3)C2)nnc1-c1ccco1 (single isomer, unassigned) [Example 178.0] | 3000 |
| COc1cccc(OC)c1-n1c(NS(=O)(=O)[C@H]2CNC[C@H](c3ccc(F)cc3)C2)nnc1-c1ccco1 (single isomer, unassigned) [Example 188.0, (3R,5S)—N-(4-(2,6-Dimethoxyphenyl)-5-(2-furanyl)-4H-1,2,4-triazol-3-yl)-5-(4-fluorophenyl)-3-piperidinesulfonamide or (3S,5R)—N-(4-(2,6-dimethoxyphenyl)-5-(2-furanyl)-4H-1,2,4-triazol-3-yl)-5-(4-fluorophenyl)-3-piperidinesulfonamide] | 75000 |
| COc1cccc(OC)c1-n1c(NS(=O)(=O)C2C[C@@H]2c2ccc(Cl)cc2)nnc1-c1ccco1 (single isomer, unassigned) [Example 191.0, (1R,2S)-2-(4-Chlorophenyl)-N-(4-(2,6-dimethoxyphenyl)-5-(2-furanyl)-4H-1,2,4-triazol-3-yl)cyclopropanesulfonamide or (1S,2R)-2-(4-chlorophenyl)-N-(4-(2,6-dimethoxyphenyl)-5-(2-furanyl)-4H-1,2,4-triazol-3-yl)cyclopropanesulfonamide] | 15000 |
| COc1cccc(OC)c1-n1c(NS(=O)(=O)[C@@H]2C[C@H]2c2ccc(Cl)cc2)nnc1-c1ccco1 (single isomer, unassigned) [Example 192.0, (1R,2S)-2-(4-Chlorophenyl)-N-(4-(2,6-dimethoxyphenyl)-5-(2-furanyl)-4H-1,2,4-triazol-3-yl)cyclopropanesulfonamide or (1S,2R)-2-(4-chlorophenyl)-N-(4-(2,6-dimethoxyphenyl)-5-(2-furanyl)-4H-1,2,4-triazol-3-yl)cyclopropanesulfonamide] | 2800 |
| COc1cccc(OC)c1-n1c(NS(=O)(=O)[C@@H](C)[C@@](C)(O)c2ccc(C#N)cn2)nnc1-c1ccc(C)o1 (single isomer, unassigned) [Example 227.0] | 350 |
| COc1cccc(OC)c1-n1c(NS(=O)(=O)[C@@H](C)[C@](C)(F)c2ncc(C#N)cn2)nnc1-c1ccc(C)o1 (single isomer, unassigned) [Example 230.0] | 410 |
